Test system: cardiac tissue generated from cardiomyocytes derived from human ESCs
Test: Electrophysiological recordings of cardiac tissue (CardioSpot) on porous multi-electrode arrays
Format: cell-based
Settings: for repolarising potential (delay measured from the first signal): 30 nM E4031, control 140 ms
Procedure: Beating aggregates are maintained at room temperature in cryo-vials full of culture medium (Human cardiovascular progenitor cells develop from a KDR+embryonic-stem-cell-derived population. Yang L, et al., (2008). […] Culture Medium-StemPro 34 and 10 ng/mL VEGF CardioSpot made using primary or stem cell derived cardiomyocytes are placed onto the porous MEAs. Electrophysiological recordings were performed either through the supporting membrane or from under the membrane in order to get a direct contact of the tissues with recording electrodes. Control recording were performed using the culture medium as well a the solution used for reference molecules ([…], and lidocaine) Pharmacological experiments were carried out using reference compounds to characterise and validate the cardiac tissue generated from cardiomyocytes derived from human ESCs and engineered using the method of invention.

Row | Structure (SMILES) | repolarising potential (delay measured from the first signal) (after 5 min) [ms] | repolarising potential (delay measured from the first signal) (after 15 min) [ms] | decrease of the amplitude of the electrophysiological signals (30 uM lidocaine, after 6 minutes) [%] | amplitude of the first signal (predominantly dependent of sodium channel opening) (lidocaine, within few minutes)
1 | Cc1cccc(CCN2CCC(C(=O)c3ccc(NS(C)(=O)=O)cc3)CC2)n1 [E4031] | 155 | 173 |  | 
2 | CCN(CC)CC(=O)Nc1c(C)cccc1C [lidocaine] |  |  | 50 | dramatic decrease

From patent US20110287982A1, “CELL CULTURE DEVICE” (priority 2008, published 2011)
